In brackets after ≈: the same amount, converted by molar mass. Bounds are passed on as bounds.

The first data set is described as follows: Kinetic solubility of compound by measuring concentration at pH 7.4 in saturated PBS buffer by UV LCMS/MS using calibration curves. The assay has been performed by Enamine biological services, Bienta Ltd.The protocol is publicly available: dx.doi.org/10.17504/protocols.io.j8nlk8y41l5r/v1. It counts as physicochemical. The note with it: PBS buffer.
Regarding `NCc1cccc(NC(=O)c2cc(Cl)cc(NC(=O)OCc3ccccc3)c2)c1`, the kinetic solubility – broadly, the concentration staying in solution when a stock, usually in DMSO, is diluted into the medium – worked out at 89 µM (≈ 36.5 µg/mL).

For the compound `O=C(Nc1ccc2c(c1)CNC2)c1cccc2[nH]c(C(F)(F)F)cc12`, the kinetic solubility came to 372 µM (≈ 128 µg/mL).

`O=C(O)COc1cccc(NC(=O)c2cc(Cl)cc(NC(=O)OCc3ccccc3)c2)c1` registered a solubility (kinetic) of 360 µM (≈ 164 µg/mL).

Regarding `CNC(=O)[C@H](Nc1cc(CN)cc(-c2nn[nH]n2)c1)c1cc(Cl)cc(C2CC2)c1`, the solubility (kinetic) is 352 µM (≈ 145 µg/mL).

The compound `N#C[C@H](Nc1cccc(C(=O)O)c1)c1cc(Cl)cc2[nH]ncc12` showed a solubility (kinetic) of 112 µM (≈ 36.6 µg/mL).

For the compound `O=C(Nc1cc(Cl)cc(-c2ccc3[nH]c(C(=O)O)cc3c2)c1)OCc1ccccc1`, the solubility (kinetic) came out at 356 µM (≈ 150 µg/mL).

`COc1ccc(-c2nc3c(C(=O)Nc4ccc5c(c4)CNC5)cc(F)cc3[nH]2)nn1` registered a solubility (kinetic) of 16 µM (≈ 6.47 µg/mL).

`COc1cc(Cl)cc([C@H](Nc2ccc3c(c2)CNC3)C(=O)NCC(F)F)c1` came in with a kinetic solubility of no less than 400 µM.

With `O=C(NCC(F)F)[C@H](Nc1ccc2c(c1)CNC2)c1cc(Br)cc2nc[nH]c12`, the kinetic solubility is no less than 400 µM.

Turning to `NCc1cccc(NC(=O)[C@@H](NC(=O)OCc2ccccc2)c2ccc(OCc3ccccc3)cc2)c1`, the kinetic solubility stood at 23 µM (≈ 11.4 µg/mL).

In turn, `N#Cc1cccc(-c2nc3c(C(=O)Nc4ccc5c(c4)CNC5)cc(F)cc3[nH]2)c1` displayed a kinetic solubility of 3 µM (≈ 1.19 µg/mL).

`CC(C)NC(=O)[C@H](Nc1ccc2c(c1)CNC2)c1cc(Cl)cc2[nH]c(-c3ccccc3)nc12` displayed a solubility (kinetic) of 154 µM (≈ 70.8 µg/mL).

Consider `NCc1cccc(NC(=O)C[C@H](NC(=O)OCc2ccccc2)c2ccc(OCc3ccccc3)c(Br)c2)c1`, for which the solubility (kinetic) amounted to 21 µM (≈ 12.4 µg/mL).

In turn, `CC(C)NC(=O)[C@H](Nc1ccc2c(c1)CNC2)c1cc(Cl)cc2[nH]ncc12` registered a solubility (kinetic) of 311 µM (≈ 119 µg/mL).

With `O=C(Nc1ccc2c(c1)CNC2)c1cc(Cl)cc2c1CCC2`, the kinetic solubility was 335 µM (≈ 105 µg/mL).

In the case of `COc1cc(C#N)cc([C@H](Nc2ccc3c(c2)CNC3)C(=O)NCC(F)F)c1`, the solubility (kinetic) was found to be 381 µM (≈ 147 µg/mL).

The compound `O=C(Nc1ccc2c(c1)CNC2)c1cc(F)cc2[nH]c(-c3ccc(F)cc3)nc12` yielded a kinetic solubility of 6 µM (≈ 2.34 µg/mL).

Compound `NCc1cccc(NC(=O)C[C@@H](NC(=O)OCc2ccccc2)c2ccc(OCc3ccccc3)cc2)c1` yielded a kinetic solubility of 17 µM (≈ 8.66 µg/mL).

Consider `CNC(=O)[C@H](Nc1cccc(-c2nn[nH]n2)c1)c1cc(Cl)cc2[nH]ncc12`, for which the solubility (kinetic) came to 347 µM (≈ 133 µg/mL).

For the compound `CNC(=O)[C@H](Nc1ccc2c(c1)CNC2)c1cc(Cl)cc2[nH]c(-c3ccccc3)nc12`, the kinetic solubility is 178 µM (≈ 76.9 µg/mL).

In turn, `O=C(NCC(F)(F)F)c1cc(Cl)c(F)cc1NS(=O)(=O)c1ccc(Oc2ccccc2Cl)cc1` came in with a kinetic solubility of 14 µM (≈ 7.52 µg/mL).

The compound `O=C(Nc1ccc2c(c1)CNC2)c1cc(F)cc2c1CCC2` registered a solubility (kinetic) of 187 µM (≈ 55.4 µg/mL).

Take `CCCCNC(=O)[C@H](Nc1ccc2c(c1)CNC2)c1cc(Cl)cc(C2CC2)c1`: the solubility (kinetic) worked out at 379 µM (≈ 151 µg/mL).

Take `C=CC[C@H]1NCc2cc(NC(=O)c3cc(F)cc4[nH]ncc34)ccc21`: the kinetic solubility worked out at 356 µM (≈ 120 µg/mL).

As for `O=C1Cc2c(cc(F)cc2C(=O)Nc2ccc3c(c2)CNC3)N1`, the kinetic solubility stood at 368 µM (≈ 115 µg/mL).

In turn, `Cn1c(=O)[nH]c2c(C(=O)Nc3ccc4c(c3)CNC4)cc(Br)cc21` yielded a kinetic solubility of 161 µM (≈ 62.3 µg/mL).

The compound `NCc1cc(C(=O)O)cc([C@@H]2C[C@H]2c2cc(Cl)cc(NC(=O)OCc3ccccc3)c2)c1` had a kinetic solubility of 52 µM (≈ 23.4 µg/mL).

`O=C(Nc1cc2c(c(-c3c[nH]c(=O)c(F)c3)c1)CNC2)c1cc(F)cc2[nH]ncc12` came in with a solubility (kinetic) of 66 µM (≈ 26.9 µg/mL).

`CC(C)c1nc2c(C(=O)Nc3cccc(CN)c3)cccc2[nH]1`: the solubility (kinetic) came to 316 µM (≈ 97.4 µg/mL).

Consider `O=C(Nc1cc(Cl)cc(C(=O)Nc2n[nH]c3c2CNC3)c1)OCc1ccccc1`, for which the solubility (kinetic) was 26 µM (≈ 10.7 µg/mL).

The compound `Cn1ncc2c(C(=O)Nc3ccc4c(c3)CNC4)cc(Br)cc21` came in with a kinetic solubility of 392 µM (≈ 146 µg/mL).

Regarding `N#Cc1cc2c(cc1NC(=O)c1cc(F)cc3[nH]ncc13)CNC2`, the solubility (kinetic) came to 191 µM (≈ 61.4 µg/mL).

Consider `N#C[C@H](Nc1ccc2c(c1)CNC2)c1cc(Cl)cc2[nH]ncc12`, for which the kinetic solubility worked out at 297 µM (≈ 96.2 µg/mL).

In turn, `Nc1ccncc1-c1cc(F)cc(C(=O)Nc2ccc3c(c2)CNC3)c1` came in with a solubility (kinetic) of 392 µM (≈ 137 µg/mL).

Consider `OCC#C[C@H](Nc1ccc2c(c1)CNC2)c1cc(Cl)cc2[nH]ncc12`, for which the solubility (kinetic) amounted to 135 µM (≈ 47.6 µg/mL).

As for `CNC(=O)c1cc(Cl)c(F)cc1NS(=O)(=O)c1ccc(Oc2ccccc2Cl)cc1`, the solubility (kinetic) is 49 µM (≈ 23 µg/mL).

Take `Cc1cc(OCc2ccccc2)ccc1NS(=O)(=O)c1ccc(Cl)cc1C(=O)O`: the solubility (kinetic) worked out at 394 µM (≈ 170 µg/mL).

Consider `O=C(Nc1cc2c(cc1Br)CNC2)c1cc(F)cc2[nH]ncc12`, for which the solubility (kinetic) amounted to 47 µM (≈ 17.6 µg/mL).

In the case of `CNC(=O)c1cc(Cl)ccc1NS(=O)(=O)c1ccc(Oc2ccccc2Cl)cc1`, the kinetic solubility stood at 25 µM (≈ 11.3 µg/mL).

`O=C1Cc2c(cccc2C(=O)Nc2ccc3c(c2)CNC3)N1` had a solubility (kinetic) of 152 µM (≈ 44.6 µg/mL).

For the compound `C=CC[C@H](Nc1cccc(-c2nn[nH]n2)c1)c1cc(Cl)cc(NC(=O)OCc2ccccc2)c1`, the solubility (kinetic) turned out to be 332 µM (≈ 158 µg/mL).

The data set is the same for the next values; noted with them: buffer.
Take `CC(C)NC(=O)[C@H](Nc1ccc2c(c1)CNC2)c1cc(Cl)cc2[nH]c(-c3ccccc3)nc12`: the “Solubility (mean)” value was 134 µM (≈ 61.6 µg/mL).

On to `N#Cc1cc2c(cc1NC(=O)c1cc(F)cc3[nH]ncc13)CNC2`, for which the “Solubility (mean)” value was 193 µM (≈ 62 µg/mL).
